Patent US20250230155A1 (Vanderbilt University, priority 2021, published 2025)

Target: T1, human mAChR M4 (Homo sapiens, UniProt P08173)
T1 construct: expressed in transfected cells
T1 sequence (P08173 1-479): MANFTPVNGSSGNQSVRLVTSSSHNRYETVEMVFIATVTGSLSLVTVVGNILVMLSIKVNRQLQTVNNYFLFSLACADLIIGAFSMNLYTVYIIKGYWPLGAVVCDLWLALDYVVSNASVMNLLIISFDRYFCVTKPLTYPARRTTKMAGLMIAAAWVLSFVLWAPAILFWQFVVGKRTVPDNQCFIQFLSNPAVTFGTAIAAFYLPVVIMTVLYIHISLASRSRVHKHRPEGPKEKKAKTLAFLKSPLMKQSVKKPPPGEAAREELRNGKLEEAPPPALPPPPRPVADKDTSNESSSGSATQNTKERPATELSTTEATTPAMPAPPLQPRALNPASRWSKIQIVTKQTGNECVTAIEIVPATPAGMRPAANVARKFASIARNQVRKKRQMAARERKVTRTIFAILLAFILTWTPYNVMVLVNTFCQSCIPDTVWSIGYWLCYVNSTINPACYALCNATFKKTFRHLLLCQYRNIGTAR
Experiment: mAChR M4 cell-based functional assay (calcium mobilization, CHO-K1 hM4-Gqi5 cells)
Settings: for Emax at 30 µM: CHO-K1, % ACh maximum at 30 μM, human M4; for EC50: positive allosteric modulator activity, increase in the EC20 acetylcholine response, CHO-K1 hM4-Gqi5 cells, read-out: Human M4 EC50; for Emax: CHO-K1
In short: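 Fluorescent calcium read-out (Fluo-4 AM, FDSS, 1 Hz) in hM4-Gqi5 CHO-K1 cells, 11-point 1:3 compound series. Agonism scored on compound addition, PAM activity as increase of the 144 s EC20 acetylcholine response, antagonism as decrease of the 230 s EC80 response; four-parameter logistic fits give EC50 and Emax.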

Row | Compound | Emax at 30 µM [%] | EC50 [µM] | Emax [%]
1 | Cc1nc(Cl)c(C)c(N2CCc3ncc(Oc4cccnc4)cc3C2)n1 [compound 207, 6-(6-chloro-2,5-dimethyl-pyrimidin-4-yl)-3-(3-pyridyloxy)-7,8-dihydro-5H-1,6-naphthyridine] | 86 | 0.37 | 
2 | Cc1cc(C#N)nnc1N1CCc2ncc(-c3cn(C)nc3C)cc2C1 [Example 323, 6-(3-(1,3-dimethyl-1H-pyrazol-4-yl)-7,8-dihydro-1,6-naphthyridin-6(5H)-yl)-5-methylpyridazine-3-carbonitrile] | 86 | 0.764 | 
3 | Cc1cc(C#N)nnc1N1CCc2ncc(C3CC3)cc2C1 [Example 393, 6-(3-cyclopropyl-7,8-dihydro-1,6-naphthyridin-6(5H)-yl)-5-methylpyridazine-3-carbonitrile] |  | 0.111 | 88
4 | [2H]C1([2H])Cc2ncc(Nc3cccnc3C)cc2C([2H])([2H])N1c1ncc(C#N)cc1C [Example 602, 5-methyl-6-(3-((2-methylpyridin-3-yl)amino)-7,8-dihydro-1,6-naphthyridin-6(5H)-yl-5,5,7,7-d4)nicotinonitrile] | 92 | 0.035 | 
5 | Cc1nc(Cl)c(C)c(N2CCc3nc(C(F)(F)F)ccc3C2)n1 [compound 218, 6-(6-chloro-2,5-dimethylpyrimidin-4-yl)-2-(trifluoromethyl)-5,6,7,8-tetrahydro-1,6-naphthyridine] | 83 | 0.759 | 
6 | Cc1c(C#N)nnc(N2CCc3ncc(-c4cccnc4)cc3C2)c1C [compound 47, 4,5-dimethyl-6-[3-(3-pyridyl)-7,8-dihydro-5H-1,6-naphthyridin-6-yl]pyridazine-3-carbonitrile] | 81 | 0.136 | 
7 | O=C(NCc1cncs1)c1ccc(N2CCc3ncc(C(F)(F)F)cc3C2)nn1 [Example 510, N-(thiazol-5-ylmethyl)-6-(3-(trifluoromethyl)-7,8-dihydro-1,6-naphthyridin-6(5H)-yl)pyridazine-3-carboxamide] | 81 | 0.855 | 
8 | Cc1nc2c(c(N3CCc4ncc(C(F)(F)F)cc4C3)n1)CCC2 [compound 267, 6-(2-methyl-6,7-dihydro-5H-cyclopenta[d]pyrimidin-4-yl)-3-(trifluoromethyl)-5,6,7,8-tetrahydro-1,6-naphthyridine] |  | 1.03 | 
9 | Cc1cc(C(=O)NCc2ccncc2)cnc1N1CCc2ncc(-c3cn(C)nc3C)cc2C1 [Example 482, 6-(3-(1,3-dimethyl-1H-pyrazol-4-yl)-7,8-dihydro-1,6-naphthyridin-6(5H)-yl)-5-methyl-N-(pyridin-4-ylmethyl)nicotinamide] | 78 | 0.468 | 
10 | Cc1c(C#N)nnc(N2CCc3ncc(-c4ccc(N5CCN(C)CC5)nc4)cc3C2)c1C [Example 328, 4,5-dimethyl-6-(3-(6-(4-methylpiperazin-1-yl)pyridin-3-yl)-7,8-dihydro-1,6-naphthyridin-6(5H)-yl)pyridazine-3-carbonitrile] | 64 | 0.191 | 
11 | Cc1cc(F)ncc1-c1cnc2c(c1)CN(c1ncc(C#N)cc1C)CC2 [Example 436, 6-(3-(6-fluoro-4-methylpyridin-3-yl)-7,8-dihydro-1,6-naphthyridin-6(5H)-yl)-5-methylnicotinonitrile] | 98 | 0.069 | 
12 | COC1CN(C(=O)c2cc(C)c(N3CCc4ncc(N5CCCn6nccc65)cc4C3)nn2)C1 [Example 548, (6-(3-(6,7-dihydropyrazolo[1,5-a]pyrimidin-4(5H)-yl)-7,8-dihydro-1,6-naphthyridin-6(5H)-yl)-5-methylpyridazin-3-yl)(3-methoxyazetidin-1-yl)methanone] | 115 | 0.025 | 
13 | Cc1cc(C(=O)N2CC(F)(F)C2)nnc1N1CCc2ncc(Nc3ccnn3C)cc2C1 [Example 566, (3,3-difluoroazetidin-1-yl)(5-methyl-6-(3-((1-methyl-1H-pyrazol-5-yl)amino)-7,8-dihydro-1,6-naphthyridin-6(5H)-yl)pyridazin-3-yl)methanone] | 73 | 0.041 | 
14 | Cc1cc(Nc2cnc3c(c2)CN(c2ncc(C#N)cc2C)CC3)n(CCC(C)C)n1 [Example 313, 6-(3-((1-isopentyl-3-methyl-1/- pyrazol-5-yl)amino)-7,8-dihydro-1,6-naphthyridin-6(5H)-yl)-5-methylnicotinonitrile] | 42 | 0.605 | 
15 | [2H]C1([2H])Cc2ncc(Nc3ccncc3C)cc2C([2H])([2H])N1c1nnc(C#N)cc1C [Example 607, 5-methyl-6-(3-((3-methylpyridin-4-yl)amino)-7,8-dihydro-1,6-naphthyridin-6(5H)-yl-5,5,7,7-d4)pyridazine-3-carbonitrile] | 70 | 0.906 | 
16 | Cc1cc(C#N)cnc1N1CCc2ncc(Oc3cccc(F)c3)cc2C1 [compound 181, 6-[3-(3-fluorophenoxy)-7,8-dihydro-5H-1,6-naphthyridin-6-yl]-5-methyl-pyridine-3-carbonitrile] | 90 | 0.141 | 
17 | Cc1cc(C(=O)N2CC(F)C2)nnc1N1CCc2ncc(-n3cccn3)cc2C1 [Example 568, (6-(3-(1H-pyrazol-1-yl)-7,8-dihydro-1,6-naphthyridin-6(5H)-yl)-5-methylpyridazin-3-yl)(3-fluoroazetidin-1-yl)methanone] | 75 | 0.161 | 
18 | Cc1cc(C#N)nnc1N1CCc2ncc(N3CCC(C)n4nccc43)cc2C1 (stereo not drawn) [Example 383, 5-methyl-6-(3-(7-methyl-6,7-dihydropyrazolo[1,5-a]pyrimidin-4(5H)-yl)-7,8-dihydro-1,6-naphthyridin-6(5H)-yl)pyridazine-3-carbonitrile] | 97 | 0.171 | 
19 | Cc1cc(C(=O)NC2CCOCC2)cnc1N1CCc2ncccc2C1 [compound 122, 6-(7,8-dihydro-5H-1,6-naphthyridin-6-yl)-5-methyl-N-tetrahydropyran-4-yl-pyridine-3-carboxamide] | 55 | ≥ 10 | 
20 | Cc1c(C#N)nnc(N2CCc3ncc(-c4ccc5ncn(C)c5c4)cc3C2)c1C [Example 17] | 33 | 0.56 | 
21 | Cc1cc(C(=O)NCc2ccc(C#N)nc2)cnc1N1CCc2ncc(-c3cn(C)nc3C)cc2C1 [Example 456, N-((6-cyanopyridin-3-yl)methyl)-6-(3-(1,3-dimethyl-1H-pyrazol-4-yl)-7,8-dihydro-1,6-naphthyridin-6(5H)-yl)-5-methylnicotinamide] | 75 | 0.888 | 
22 | Cc1noc(C)c1-c1cnc2c(c1)CN(c1nnc(C#N)c(C)c1C)CC2 [Example 297, 6-(3-(3,5-dimethylisoxazol-4-yl)-7,8-dihydro-1,6-naphthyridin-6(5H)-yl)-4,5-dimethylpyridazine-3-carbonitrile] | 83 | 0.267 | 
23 | Cc1c(C#N)nnc(N2CCc3ncc(N4CCCn5nccc54)cc3C2)c1C [Example 342, 6-(3-(6,7-dihydropyrazolo[1,5-a]pyrimidin-4(5H)-yl)-7,8-dihydro-1,6-naphthyridin-6(5H)-yl)-4,5-dimethylpyridazine-3-carbonitrile] | 86 | 0.064 | 
24 | Cc1cc(C#N)c(-c2cccn2C)nc1N1CCc2ncc(C(F)(F)F)cc2C1 [Example 372, 5-methyl-2-(1-methyl-1H-pyrrol-2-yl)-6-(3-(trifluoromethyl)-7,8-dihydro-1,6-naphthyridin-6(5H)-yl)nicotinonitrile] | 55 | 5.8 | 
25 | [2H]C1([2H])Cc2ncc(Nc3cc(C)ncc3F)cc2C([2H])([2H])N1c1ncc(C#N)cc1C [Example 601, 6-(3-((5-fluoro-2-methylpyridin-4-yl)amino)-7,8-dihydro-1,6-naphthyridin-6(5H)-yl-5,5,7,7-d4)-5-methylnicotinonitrile] | 95 | 0.007 | 
26 | Cc1c(Cl)nc(C(F)(F)F)nc1N1CCc2ncc(Nc3cccnc3F)cc2C1 [compound 249, 6-(6-chloro-5-methyl-2-(trifluoromethyl)pyrimidin-4-yl)-N-(2-fluoropyridin-3-yl)-5,6,7,8-tetrahydro-1,6-naphthyridin-3-amine] | 82 | 1.44 | 
27 | Cc1cc(C#N)nnc1N1CCc2ncc(C(F)F)cc2C1 [Example 309, 6-(3-(difluoromethyl)-7,8-dihydro-1,6-naphthyridin-6(5H)-yl)-5-methylpyridazine-3-carbonitrile] |  | 0.77 | 96
28 | Cc1c(C#N)nnc(N2CCc3ncc(Oc4ccc(F)cc4)cc3C2)c1C [Example 300, 6-(3-(4-fluorophenoxy)-7,8-dihydro-1,6-naphthyridin-6(5H)-yl)-4,5-dimethylpyridazine-3-carbonitrile] | 71 | 0.246 | 
29 | Cc1cc(C(=O)NCc2ccc(Cl)nc2Cl)cnc1N1CCc2ncc(-c3cn(C)nc3C)cc2C1 [Example 462, N-((2,6-dichloropyridin-3-yl)methyl)-6-(3-(1,3-dimethyl-1H-pyrazol-4-yl)-7,8-dihydro-1,6-naphthyridin-6(5H)-yl)-5-methylnicotinamide] | 72 | 0.714 | 
